Experimental data: patent EP0917542B1, “PROCESS FOR POLYMERIZATION OF OLEFINIC MONOMERS” (E.I. DU PONT DE NEMOURS AND COMPANY, priority 1996, dated 1998)

Experiment: Stability in neutral aqueous dispersion, followed by 19F NMR
Format: physicochemical
Conditions: aqueous dispersion with ammonium perfluorononanoate surfactant; heated in an oil bath at 100°C for 2 hr
Protocol: A solution of 2.41 g of ammonium perfluorononanoate (surfactant) in 1-L of deionized water was processed for 5 minutes through a Microfluidizer™ Model 110T with 4.14 g of n-perfluorobutanesulfonyl chloride. The mixture was cooled by passing though a coil chilled in ice water during the processing. A clear mixture was obtained. […] A second aliquot of the solution was heated in an oil bath at 100°C for 2 hr and then analyzed by ^19F NMR. […] A more concentrated mixture was prepared by adding 10.4 g of n-perfluorobutanesulfonyl chloride to a solution of 0.5 g ammonium perfluorononanoate in 100 mL of deionized water with processing through the Microfluidizer™.

19F NMR spectrum after heating (stability in a neutral aqueous mixture): essentially unchanged
Compound: O=S(=O)(Cl)C(F)(F)C(F)(F)C(F)(F)C(F)(F)F [n-perfluorobutanesulfonyl chloride]
